US20250145665A1, “MACROCYCLIC PEPTIDES USEFUL AS MODULATORS OF TNF ALPHA” (Bristol-Myers Squibb Company, priority 2023, published 2025)
Starred links: 1 amine or outer side, 2 acyl side, 3 side chain; linkers in the order of their positions; H or OH if unused. Positions of bridges follow the written chain, without caps; N, C: chain ends. Non-standard residues stand in square brackets, D forms with d. Residues, ends and D or L forms follow the SMILES beside them. ξ: configuration not given here. *: point of attachment. X79 = O=C(O)C1CCCC(C(=O)Nc2ccc(-c3ccc(C[C@H](N[*:1])C(=O)[*:2])cc3)cc2)C1; X37 = O=C(Nc1ccc(-c2ccc(C[C@H](N[*:1])C(=O)[*:2])cc2)cc1)c1ccc2ccccc2c1; X40 = O=C(O)C1CCCCC1C(=O)Nc1ccc(-c2ccc(C[C@H](N[*:1])C(=O)[*:2])cc2)cc1; X73 = O=C(O)CCCC(=O)Nc1ccc(-c2ccc(C[C@H](N[*:1])C(=O)[*:2])cc2)cc1; X64 = O=C(O)CCC(=O)Nc1ccc(-c2ccc(C[C@H](N[*:1])C(=O)[*:2])cc2)cc1; Bip(4'-NH) = O=C([C@H](Cc1ccc(-c2ccc(N[*:3])cc2)cc1)N[*:1])[*:2]; Bip(4'-COOH) = N[C@@H](Cc1ccc(-c2ccc(C(=O)O)cc2)cc1)C(=O)O; Bip(4'-NHAc) = CC(=O)Nc1ccc(-c2ccc(C[C@H](N)C(=O)O)cc2)cc1; Ala(morpholin-4-yl) = N[C@@H](CN1CCOCC1)C(=O)O; Phe(3-CONH2) = NC(=O)c1cccc(C[C@H](N)C(=O)O)c1; Bip = N[C@@H](Cc1ccc(-c2ccccc2)cc1)C(=O)O; X57 = Cn1c(C(=O)*)cc2c(Cl)cccc21; Cha = N[C@@H](CC1CCCCC1)C(=O)O; Chg = N[C@H](C(=O)O)C1CCCCC1; ξE = NC(CCC(=O)O)C(=O)O; Sar = CNCC(=O)O

Biological target: TNFα (Homo sapiens, UniProt P01375)
Assay: TNF-Induced HEK-Blue Assay
Format: cell-based
Details: HEK-Blue-CD40L cells, NF-kB-driven secreted alkaline phosphatase reporter; TNFα 0.5 ng/ml; 18 h; read-out: TNF induced HEK-Blue assay IC50 value

Sequence of TNFα (P01375 77-233 limits assumed): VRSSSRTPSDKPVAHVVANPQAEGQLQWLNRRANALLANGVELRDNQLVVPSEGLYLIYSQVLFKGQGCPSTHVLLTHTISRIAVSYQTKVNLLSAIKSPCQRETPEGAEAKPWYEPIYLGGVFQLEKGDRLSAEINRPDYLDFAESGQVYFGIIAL

| Compound | IC50 [nM] |
| --- | --- |
| CC[C@H](C)[C@@H]1NC(=O)[C@@H](CCCNC(=N)N)NC(=O)[C@H](CC(=O)O)NC(=O)[C@H](Cc2cnc[nH]2)NC(=O)CN(C)C(=O)[C@H](Cc2ccc(-c3ccc(NC(=O)C4CCCC(C(=O)O)C4)cc3)cc2)NC(=O)[C@H](Cc2ccc(-c3ccccc3)cc2)NC(=O)[C@H](CC2CCCCC2)NC(=O)CSC[C@@H](C(=O)NCC(N)=O)NC(=O)[C@H](CC(C)C)NC(=O)[C@H](Cc2cnc[nH]2)NC(=O)[C@H](C(C)C)NC(=O)[C@@H]2CCCN2C1=O (some centres unmarked) [Example 317] ({CH2CO}-[Cha][Bip][X79][Sar]HD[dR]IPVHLCG-NH2; thioether N-13) | 50 to 200 |
| CC[C@H](C)[C@@H]1NC(=O)[C@@H](CCCNC(=N)N)NC(=O)[C@H](CC(=O)O)NC(=O)[C@H](Cc2cnc[nH]2)NC(=O)CN(C)C(=O)[C@H](Cc2ccc(-c3ccc(NC(=O)C4CCCCC4C(=O)O)cc3)cc2)NC(=O)[C@H](Cc2ccc(-c3ccccc3)cc2)NC(=O)[C@H](CC2CCCCC2)NC(=O)CSC[C@@H](C(=O)NCC(N)=O)NC(=O)[C@H](CC(C)C)NC(=O)[C@H](Cc2cnc[nH]2)NC(=O)[C@H](C(C)C)NC(=O)[C@@H]2CCCN2C1=O (some centres unmarked) [Example 318] ({CH2CO}-[Cha][Bip][X40][Sar]HD[dR]IPVHLCG-NH2; thioether N-13) | 50 to 200 |
| CC[C@H](C)[C@@H]1NC(=O)[C@@H](CCCNC(=N)N)NC(=O)[C@H](CC(=O)O)NC(=O)[C@H](Cc2cnc[nH]2)NC(=O)CN(C)C(=O)[C@H](Cc2ccc(-c3ccc(NC(=O)c4cc5c(Cl)cccc5n4C)cc3)cc2)NC(=O)[C@H](Cc2ccc(-c3ccccc3)cc2)NC(=O)[C@H](CC2CCCCC2)NC(=O)CSC[C@@H](C(=O)NCC(N)=O)NC(=O)[C@H](CC(C)C)NC(=O)[C@H](Cc2cnc[nH]2)NC(=O)[C@H](C(C)C)NC(=O)[C@@H]2CCCN2C1=O [Example 319] ({CH2CO}-[Cha][Bip][Bip(4'-NH)](X57)[Sar]HD[dR]IPVHLCG-NH2; thioether N-13) | 50 to 200 |
| CC(=O)Nc1ccc(-c2ccc(C[C@@H]3NC(=O)[C@H](Cc4ccc(-c5ccc(C(=O)O)cc5)cc4)NC(=O)[C@H](CN4CCOCC4)NC(=O)CSC[C@@H](C(=O)NCC(N)=O)NC(=O)[C@H](CC(C)C)NC(=O)[C@H](Cc4cccc(C(N)=O)c4)NC(=O)[C@H](C4CCCCC4)NC(=O)[C@@H]4CCCN4C(=O)[C@H](C(C)C)NC(=O)[C@@H](CCCNC(=N)N)NC(=O)[C@H](CC(=O)O)NC(=O)[C@@H]4CCCN4C(=O)CN(C)C3=O)cc2)cc1 [Example 320] ({CH2CO}-[Ala(morpholin-4-yl)][Bip(4'-COOH)][Bip(4'-NHAc)][Sar]PD[dR]VP[Chg][Phe(3-CONH2)]LCG-NH2; thioether N-13) | 200 to 2000 |
| CC(=O)Nc1ccc(-c2ccc(C[C@@H]3NC(=O)[C@H](Cc4ccc(-c5ccccc5)cc4)NC(=O)[C@H](CC4CCCCC4)NC(=O)CSC[C@@H](C(=O)NC(CCC(=O)O)C(N)=O)NC(=O)[C@H](CC(C)C)NC(=O)[C@H](Cc4ccc(O)cc4)NC(=O)[C@H](C(C)C)NC(=O)[C@@H]4CCCN4C(=O)[C@H](C(C)C)NC(=O)[C@@H](CCCNC(=N)N)NC(=O)[C@H](CC(=O)O)NC(=O)[C@@H]4CCCN4C(=O)CN(C)C3=O)cc2)cc1 (some centres unmarked) [Example 321] ({CH2CO}-[Cha][Bip][Bip(4'-NHAc)][Sar]PD[dR]VPVYLC[ξE]-NH2; thioether N-13) | 50 to 200 |
| CC[C@H](C)[C@@H]1NC(=O)[C@@H](CCCNC(=N)N)NC(=O)[C@H](CC(=O)O)NC(=O)[C@H](Cc2cnc[nH]2)NC(=O)CN(C)C(=O)[C@H](Cc2ccc(-c3ccc(NC(=O)c4ccc5ccccc5c4)cc3)cc2)NC(=O)[C@H](Cc2ccc(-c3ccccc3)cc2)NC(=O)[C@H](CC2CCCCC2)NC(=O)CSC[C@@H](C(=O)NCC(N)=O)NC(=O)[C@H](CC(C)C)NC(=O)[C@H](Cc2cnc[nH]2)NC(=O)[C@H](C(C)C)NC(=O)[C@@H]2CCCN2C1=O [Example 322] ({CH2CO}-[Cha][Bip][X37][Sar]HD[dR]IPVHLCG-NH2; thioether N-13) | 50 to 200 |
| CC[C@H](C)[C@@H]1NC(=O)[C@@H](CCCNC(=N)N)NC(=O)[C@H](CC(=O)O)NC(=O)[C@H](Cc2cnc[nH]2)NC(=O)CN(C)C(=O)[C@H](Cc2ccc(-c3ccc(NC(=O)CCC(=O)O)cc3)cc2)NC(=O)[C@H](Cc2ccc(-c3ccccc3)cc2)NC(=O)[C@H](CC2CCCCC2)NC(=O)CSC[C@@H](C(=O)NCC(N)=O)NC(=O)[C@H](CC(C)C)NC(=O)[C@H](Cc2cnc[nH]2)NC(=O)[C@H](C(C)C)NC(=O)[C@@H]2CCCN2C1=O [Example 323] ({CH2CO}-[Cha][Bip][X64][Sar]HD[dR]IPVHLCG-NH2; thioether N-13) | 50 to 200 |
| CC[C@H](C)[C@@H]1NC(=O)[C@@H](CCCNC(=N)N)NC(=O)[C@H](CC(=O)O)NC(=O)[C@H](Cc2cnc[nH]2)NC(=O)CN(C)C(=O)[C@H](Cc2ccc(-c3ccc(NC(=O)CCCC(=O)O)cc3)cc2)NC(=O)[C@H](Cc2ccc(-c3ccccc3)cc2)NC(=O)[C@H](CC2CCCCC2)NC(=O)CSC[C@@H](C(=O)NCC(N)=O)NC(=O)[C@H](CC(C)C)NC(=O)[C@H](Cc2cnc[nH]2)NC(=O)[C@H](C(C)C)NC(=O)[C@@H]2CCCN2C1=O [Example 324] ({CH2CO}-[Cha][Bip][X73][Sar]HD[dR]IPVHLCG-NH2; thioether N-13) | 50 to 200 |
